Measurements reported in US20240067932A1, “METHODS AND COMPOSITIONS FOR GENERATING HEMOGENIC ENDOTHELIAL CELLS FROM PLURIPOTENT STEM CELLS” (Trailhead Biosystems Inc., priority 2022, published 2024).

What was measured:
Format in all cases: cell-based, human
[1] = system: early mesoderm progenitors; assay: Factor criticality / dynamic profile analysis of gene expression on removal of a finalized effector; design: expression level of GATA2 / expression level of TAL1 / expression level of CD44 / expression level of KDR / expression level of CD34 / expression level of CD31: unit not given here
[2] = system: early mesoderm progenitors; assay: 8-factor HD-DoE experiments optimized for maximum GATA2 expression (qPCR, partial least squares models)
From the text: The early mesoderm progenitors were used for further differentiation along the endothelial lineage using a High-Dimensional Design of Experiments (HD-DoE) approach to simultaneously test multiple process inputs (e.g., small molecule agonists or antagonists) on output responses, such as gene expression. Based on predicted conditions that maximize expression of hemogenic endothelial enriched genes such as CD31, CD34, CD143, CD309, GATA2, Fill and RUNX1, vWF, a complex recipe was developed for generating differentiated hemogenic endothelial cells from the early mesoderm progenitors, composed of 8 agents as shown below in Table 1:
First, undifferentiated iPSC were grown for 48 h in CDM2 media containing 6 uM CHIR99021 (referred to herein as stage 1). Then stage 2 media was engineered. The basis of this was an 8-factor HD-DoE experiment with focus on differentiation of cells toward the hemogenic endothelial lineage for an additional 3 days after termination of stage 1 treatment. To test the effectors, 48 different combinations of effectors generated using Design-of-Experiments compression through D-optimality were robotically prepared. The effector combinations were prepared in a basal media and were subsequently added to the cells, which were then allowed to differentiate. Three days later, RNA extraction was performed, and gene expression was obtained using quantitative PCR analysis. The data were normalized and modeled using partial least squares regression analysis to the effector design, resulting in the generation of gene-specific models, which after model tuning for maximal Q2 predictive power, provided explanation of the effectors ability to control the expression of individual genes, combinatorically, and individually. Solutions within the tested space could then be explored to address desirability. For stage 2, conditions were created inducing the expression of GATA2, a transcription factor identified as a master regulator of hematopoiesis. GATA2 promotes the generation of HECs and facilitates endothelial-to-hematopoietic transition (EHT). GATA2 also suppresses cardiac differentiation at the mesoderm stage, directing cells to a hematopoietic fate. Optimizing for maximal expression of GATA2 led to a robust solution. […] In this model, high levels of KDR, important receptor for VEGF signaling, were observed. […] This model was derived from initial testing of eight factors including: Forskolin, VEGF, FGF2, Albumax, SUN1162, Hydrocortisone, SB341542, and Resveratrol. […] Factors with low contribution were excluded.

[3] = system: early mesoderm progenitors; assay: as above; remark: listed apart in the source
[4] = model FIG. 7, named factor removed, others kept
[5] = model FIG. 8, named factor removed, others kept
[6] = model FIG. 10, named factor removed

FGF2: FGFR agonist (e.g., recombinant human FGF2)
expression level of GATA2 ([1]; model FIG. 7 (VEGF, Forskolin, FGF2), factor present): 583 | expression level of CD31 ([1]; model FIG. 7, factor present): 879 | expression level of CD44 ([1]; model FIG. 7, factor present): 576 | expression level of FLI1 (Fill [sic]) ([1]; model FIG. 7, factor present): 3970 | expression level of KDR ([1]; model FIG. 7, factor present): 33760 | expression level of CD31 [1, 4]: 505 | expression level of CD44 [1, 4]: 274 | expression level of FLI1 (Fill [sic]) [1, 4]: 3374 | expression level of GATA2 [1, 4]: 458 | expression level of KDR [1, 4]: 23868 | expression level of CD31 ([1]; model FIG. 8, factor present): 807 | expression level of CD44 ([1]; model FIG. 8, factor present): 748 | expression level of KDR ([1]; model FIG. 8, factor present): 40630 | expression level of CD31 [1, 5]: 677 | expression level of CD44 [1, 5]: 626 | expression level of KDR [1, 5]: 29902 | expression level of GATA2 ([1]; model FIG. 10 (XAV939, VEGF, FGF2, L-ascorbic acid kept), factor present): 992 | expression level of CD31 ([1]; model FIG. 10, factor present): 6619 | expression level of CD34 ([1]; model FIG. 10, factor present): 7050 | expression level of CD44 ([1]; model FIG. 10, factor present): 838 | expression level of FLI1 (Fill [sic]) ([1]; model FIG. 10, factor present): 13094 | expression level of KDR ([1]; model FIG. 10, factor present): 36067 | expression level of TAL1 ([1]; model FIG. 10, factor present): 1265 | expression level of CD31 [1, 6]: 2002 | expression level of CD34 [1, 6]: 6550 | expression level of CD44 [1, 6]: 466 | expression level of FLI1 (Fill [sic]) [1, 6]: 5406 | expression level of GATA2 [1, 6]: 397 | expression level of KDR [1, 6]: 22308 | expression level of TAL1 [1, 6]: 866 | factor contribution in 2 of 3 models ([2]; across models): > 16 | factor contribution (maximum expression of GATA2) ([2]; first model, FIG. 2, factors Forskolin, VEGF, FGF2, Albumax, SUN1162, Hydrocortisone, SB341542, Resveratrol, 3 days after stage 1): 17 | factor contribution (maximum expression of GATA2) ([3]; fourth model, FIG. 5, factors VEGF, FGF2, Sphingosine 1 phosphate, V11298, Pyrintegrin, Erythropoietin, L-ascorbic acid, XAV939): 22 | factor contribution (maximum expression of GATA2) ([3]; second model, FIG. 3, factors CHIR, VEGF, FGF2, TTNBP, AGN194310, Y27632, Thymosin-β4, heparin): low factor contribution
